Results: ChEMBL document CHEMBL1201862, “PubChem BioAssay data set” (2004)
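Five concentrations, 48 hours, 96-well plates. Abbreviation: GI50, concentration required for 50% inhibition of growth.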 Calls of active or inactive are those of the source. Rule as the data show it: active = GI50 up to about 1.1 µM and inactive = higher.

How the values were obtained:
Test in all cases: DTP human tumour cell line panel, 48 h
[1] = tested on: OVCAR-4
[2] = tested on: KM-20L2
[3] = tested on: SNB-78
[4] = tested on: UO-31
[5] = tested on: CAKI-1
[6] = tested on: Malme-3M
[7] = tested on: CCRF-CEM
[8] = tested on: UACC-257
[9] = tested on: DMS-273
[10] = tested on: DLD-1
[11] = tested on: SN12C
[12] = tested on: COLO 205
[13] = tested on: OVCAR-8
[14] = tested on: SK-MEL-28
[15] = tested on: LXFL 529
[16] = tested on: SF-295
[17] = tested on: 786-0
[18] = tested on: A498
[19] = tested on: M19-MEL
[20] = tested on: RPMI-8226
[21] = tested on: NCI-H460
[22] = tested on: LOX IMVI
[23] = tested on: SK-OV-3
[24] = tested on: HCT-15
[25] = tested on: HOP-62
[26] = tested on: NCI-H226
[27] = tested on: SW-620
[28] = tested on: SK-MEL-2
[29] = tested on: K562
[30] = tested on: EKVX
[31] = tested on: M14
[32] = tested on: NCI-H23
[33] = tested on: SF-268
[34] = tested on: HL-60
[35] = tested on: NCI-H522
[36] = tested on: MOLT-4
[37] = tested on: RXF 393
[38] = tested on: HCT-116
[39] = tested on: RXF 631
[40] = tested on: SK-MEL-5
[41] = tested on: A549
[42] = tested on: XF498
[43] = tested on: SF-539
[44] = tested on: OVCAR-5
[45] = tested on: SNB-19
[46] = tested on: ACHN
[47] = tested on: TK-10
[48] = tested on: DMS-114
[49] = tested on: HT-29
[50] = tested on: IGROV-1
[51] = tested on: HOP-92
[52] = tested on: UACC-62
[53] = tested on: OVCAR-3
[54] = tested on: SNB-75
[55] = tested on: SR
[56] = tested on: U-251
[57] = tested on: KM12
[58] = tested on: HCC 2998

## CCOC(=O)c1ccc(/N=C\c2ccc(N(CCC#N)CCC#N)cc2)cc1
[1]
  GI50: 41.6 µM (inactive)
[2]
  GI50: 27.7 µM (inactive)
[3]
  GI50: > 100 µM (inactive)
[4]
  GI50: 27.2 µM (inactive)
[5]
  GI50: > 100 µM (inactive)
[6]
  GI50: > 100 µM (inactive)
[7]
  GI50: 46.9 µM (inactive)
[8]
  GI50: > 100 µM (inactive)
[9]
  GI50: 35.9 µM (inactive)
[10]
  GI50: 41.7 µM (inactive)
[11]
  GI50: > 100 µM (inactive)
[12]
  GI50: 53.7 µM (inactive)
[13]
  GI50: 89.1 µM (inactive)
[14]
  GI50: > 100 µM (inactive)
[15]
  GI50: 20.8 µM (inactive)
[16]
  GI50: > 100 µM (inactive)
[17]
  GI50: 99.5 µM (inactive)
[18]
  GI50: > 100 µM (inactive)
[19]
  GI50: 62.8 µM (inactive)
[20]
  GI50: 65.6 µM (inactive)
[21]
  GI50: > 100 µM (inactive)
[22]
  GI50: 44.2 µM (inactive)
[23]
  GI50: > 100 µM (inactive)
[24]
  GI50: 21.4 µM
[25]
  GI50: 40.5 µM (inactive)
[26]
  GI50: > 100 µM (inactive)
[27]
  GI50: 81.5 µM (inactive)
[28]
  GI50: > 100 µM (inactive)
[29]
  GI50: 28.2 µM (inactive)
[30]
  GI50: > 100 µM (inactive)
[31]
  GI50: 36.5 µM (inactive)
[32]
  GI50: > 100 µM (inactive)
[33]
  GI50: 84.7 µM (inactive)
[34]
  GI50: 80.9 µM (inactive)
[35]
  GI50: 49.5 µM (inactive)
[36]
  GI50: 32.4 µM (inactive)
[37]
  GI50: > 100 µM (inactive)
[38]
  GI50: 48 µM (inactive)
[39]
  GI50: > 100 µM (inactive)
[40]
  GI50: 78.3 µM (inactive)
[41]
  GI50: 70 µM (inactive)
[42]
  GI50: > 100 µM (inactive)
[43]
  GI50: 45.5 µM (inactive)
[44]
  GI50: > 100 µM (inactive)
[45]
  GI50: > 100 µM (inactive)
[46]
  GI50: 43.2 µM (inactive)
[47]
  GI50: 39.6 µM (inactive)
[48]
  GI50: 70 µM (inactive)
[49]
  GI50: > 100 µM (inactive)
[50]
  GI50: 81.8 µM (inactive)
[51]
  GI50: > 100 µM (inactive)
[52]
  GI50: 21.5 µM (inactive)
[53]
  GI50: > 100 µM (inactive)
[54]
  GI50: 47.4 µM (inactive)

## COc1cc(NS(C)(=O)=O)ccc1NCc1c2ccccc2nc2ccccc12
[1]
  GI50: 0.0571 µM (active)
[2]
  GI50: 50.8 µM (inactive)
[4]
  GI50: 19.1 µM (inactive)
[5]
  GI50: 21.7 µM (inactive)
[6]
  GI50: 31.5 µM (inactive)
[7]
  GI50: 4.18 µM (inactive)
[8]
  GI50: 32.9 µM (inactive)
[9]
  GI50: 28.4 µM (inactive)
[10]
  GI50: 17.1 µM (inactive)
[11]
  GI50: 28.3 µM (inactive)
[12]
  GI50: 70.1 µM (inactive)
[13]
  GI50: 30.9 µM (inactive)
[14]
  GI50: 49.7 µM (inactive)
[15]
  GI50: 29 µM (inactive)
[16]
  GI50: 64 µM (inactive)
[17]
  GI50: 40.6 µM (inactive)
[55]
  GI50: 4.71 µM (inactive)
[19]
  GI50: > 10 µM (inactive)
[20]
  GI50: 22.5 µM (inactive)
[21]
  GI50: 34.5 µM (inactive)
[56]
  GI50: 76.6 µM (inactive)
[22]
  GI50: 23.2 µM (inactive)
[23]
  GI50: > 100 µM (inactive)
[24]
  GI50: 21.7 µM
[26]
  GI50: > 100 µM (inactive)
[27]
  GI50: 26.7 µM (inactive)
[28]
  GI50: 44.4 µM (inactive)
[29]
  GI50: 7.87 µM (inactive)
[30]
  GI50: 42.6 µM (inactive)
[31]
  GI50: 52.6 µM (inactive)
[57]
  GI50: 7.66 µM (inactive)
[32]
  GI50: 31 µM (inactive)
[33]
  GI50: 32.1 µM (inactive)
[34]
  GI50: 13.5 µM (inactive)
[35]
  GI50: 24.3 µM (inactive)
[36]
  GI50: 3.27 µM (inactive)
[37]
  GI50: 13.9 µM (inactive)
[38]
  GI50: 3.45 µM (inactive)
[39]
  GI50: 15 µM (inactive)
[58]
  GI50: 40.6 µM (inactive)
[41]
  GI50: 67 µM (inactive)
[42]
  GI50: 33.4 µM (inactive)
[43]
  GI50: 24.3 µM (inactive)
[44]
  GI50: > 100 µM (inactive)
[45]
  GI50: 51.8 µM (inactive)
[46]
  GI50: 29.4 µM (inactive)
[47]
  GI50: > 100 µM (inactive)
[48]
  GI50: 17.3 µM (inactive)
[49]
  GI50: 31.6 µM (inactive)
[50]
  GI50: 29.4 µM (inactive)
[51]
  GI50: 17.3 µM (inactive)
[52]
  GI50: > 100 µM (inactive)
[53]
  GI50: 43.5 µM (inactive)
[54]
  GI50: > 100 µM (inactive)
